Legend:
[1] = biological target: T1, N-type calcium channel (NTCC) (Homo sapiens, UniProt Q00975); assay: FLIPR calcium mobilization assay for N-type calcium channel; assay type: cell-based; details: calcium mobilization in vitro assay; differentiated IMR32 cells, 5 μM nitrendipine, 90 mM KCl
T1 construct: endogenous in cells; host or cells: IMR32 cells (ATCC), differentiated with dibutyryl cAMP and bromodeoxyuridine
Protocol: Cell maintenance and differentiation. Unless noted otherwise, cell culture reagents were purchased from Mediatech of Herndon, Md. IMR32 cells (American Type Culture Collection, ATCC, Manassas, Va.) were routinely cultured in growth medium consisting of minimum essential medium containing 10% fetal bovine serum (FBS, Hyclone, Logan, Utah), 100 U/mL penicillin, 100 μg/mL streptomycin, 2 mM L-glutamine, 1 mM sodium pyruvate, and 1×MEM non-essential amino acids. 80-90% confluent flasks of cells were differentiated using the following differentiation medium: Growth medium plus 1 mM dibutyryl cyclic AMP (Sigma, St. Louis, Mo.), and 2.5 μM bromodeoxyuridine (Sigma). Cells were differentiated for 8 days by replacing differentiation medium every 2-3 days.
FLIPR Calcium Mobilization Assay for N-type Calcium Channel. One day prior to performing this assay, differentiated IMR32 cells were treated with 1× CellStripper, and seeded on poly-D-lysine-coated 96-well clear-bottom black plates (Becton Dickinson, Franklin Lakes, N.J.) at 200,000 cells/well. On the day of the assay, the cell plates were washed with IMR32 buffer (127 mM NaCl, 1 mM KCl, 2 mM MgCl2, 700 μM NaH2PO4, 5 mM CaCl2, 5 mM NaHCO3, 8 mM HEPES, 10 mM glucose, pH 7.4), then pre-stimulated with KCl and loaded as follows: 0.05 mL of IMR32 buffer, 0.05 mL of each compound tested diluted in IMR32 buffer containing 20 μM nitrendipine (Sigma), and 0.1 mL KCl dissolved in IMR32 buffer, plus Fluo-4 were added (3 μM final concentration, Molecular Probes, Eugene, Oreg.). Final test compound concentrations ranged from about 846 pM to about 17 μM, final nitrendipine concentration was 5 μM, and final KCl concentration was 90 mM. After 1 hour, the cells were washed twice with 0.05 mL of each compound tested in nitrendipine-containing IMR32 buffer (no KCl or Fluo-4), and then replaced with 0.1 mL of each compound tested in nitrendipine-containing IMR32 buffer. Plates were then transferred to a Fluorimetric Imaging Plate Reader (FLIPR^96, Molecular Devices, Inc., Sunnyvale, Calif.) for assay. The FLIPR measured basal Fluo-4 fluorescence for 315 seconds (i.e., 5 minutes and 15 seconds), then added 0.1 mL KCl agonist dissolved in IMR32 buffer and measured fluorescence for another 45 seconds. Final test compound concentrations on the cells after FLIPR read ranged from about 846 pM to about 17 μM, final nitrendipine concentration was 5 μM, and final KCl concentration was 90 mM. Data were collected over the entire time course and analyzed using Excel, Graph Pad Prism (version 3.02, Graph Pad, San Diego, Calif.), or an in-house non-linear regression analysis software.

[2] = biological target: T2, recombinant rat L-type calcium channel (LTCC) subunits (α1c, α2δ, and β1) (Rattus norvegicus, UniProt P22002); assay: FLIPR calcium mobilization assay for L-type calcium channel; assay type: cell-based; details: calcium mobilization in vitro assay; HEK293 cells stably expressing rat LTCC subunits, 90 mM KCl
T2 construct: expressed in transfected cells; α1c in pcDNA6.2DEST, β1 in pcDNA3.2DEST, α2δ in pcDNA3.1-Zeo
T2 sequence (P22002 whole entry): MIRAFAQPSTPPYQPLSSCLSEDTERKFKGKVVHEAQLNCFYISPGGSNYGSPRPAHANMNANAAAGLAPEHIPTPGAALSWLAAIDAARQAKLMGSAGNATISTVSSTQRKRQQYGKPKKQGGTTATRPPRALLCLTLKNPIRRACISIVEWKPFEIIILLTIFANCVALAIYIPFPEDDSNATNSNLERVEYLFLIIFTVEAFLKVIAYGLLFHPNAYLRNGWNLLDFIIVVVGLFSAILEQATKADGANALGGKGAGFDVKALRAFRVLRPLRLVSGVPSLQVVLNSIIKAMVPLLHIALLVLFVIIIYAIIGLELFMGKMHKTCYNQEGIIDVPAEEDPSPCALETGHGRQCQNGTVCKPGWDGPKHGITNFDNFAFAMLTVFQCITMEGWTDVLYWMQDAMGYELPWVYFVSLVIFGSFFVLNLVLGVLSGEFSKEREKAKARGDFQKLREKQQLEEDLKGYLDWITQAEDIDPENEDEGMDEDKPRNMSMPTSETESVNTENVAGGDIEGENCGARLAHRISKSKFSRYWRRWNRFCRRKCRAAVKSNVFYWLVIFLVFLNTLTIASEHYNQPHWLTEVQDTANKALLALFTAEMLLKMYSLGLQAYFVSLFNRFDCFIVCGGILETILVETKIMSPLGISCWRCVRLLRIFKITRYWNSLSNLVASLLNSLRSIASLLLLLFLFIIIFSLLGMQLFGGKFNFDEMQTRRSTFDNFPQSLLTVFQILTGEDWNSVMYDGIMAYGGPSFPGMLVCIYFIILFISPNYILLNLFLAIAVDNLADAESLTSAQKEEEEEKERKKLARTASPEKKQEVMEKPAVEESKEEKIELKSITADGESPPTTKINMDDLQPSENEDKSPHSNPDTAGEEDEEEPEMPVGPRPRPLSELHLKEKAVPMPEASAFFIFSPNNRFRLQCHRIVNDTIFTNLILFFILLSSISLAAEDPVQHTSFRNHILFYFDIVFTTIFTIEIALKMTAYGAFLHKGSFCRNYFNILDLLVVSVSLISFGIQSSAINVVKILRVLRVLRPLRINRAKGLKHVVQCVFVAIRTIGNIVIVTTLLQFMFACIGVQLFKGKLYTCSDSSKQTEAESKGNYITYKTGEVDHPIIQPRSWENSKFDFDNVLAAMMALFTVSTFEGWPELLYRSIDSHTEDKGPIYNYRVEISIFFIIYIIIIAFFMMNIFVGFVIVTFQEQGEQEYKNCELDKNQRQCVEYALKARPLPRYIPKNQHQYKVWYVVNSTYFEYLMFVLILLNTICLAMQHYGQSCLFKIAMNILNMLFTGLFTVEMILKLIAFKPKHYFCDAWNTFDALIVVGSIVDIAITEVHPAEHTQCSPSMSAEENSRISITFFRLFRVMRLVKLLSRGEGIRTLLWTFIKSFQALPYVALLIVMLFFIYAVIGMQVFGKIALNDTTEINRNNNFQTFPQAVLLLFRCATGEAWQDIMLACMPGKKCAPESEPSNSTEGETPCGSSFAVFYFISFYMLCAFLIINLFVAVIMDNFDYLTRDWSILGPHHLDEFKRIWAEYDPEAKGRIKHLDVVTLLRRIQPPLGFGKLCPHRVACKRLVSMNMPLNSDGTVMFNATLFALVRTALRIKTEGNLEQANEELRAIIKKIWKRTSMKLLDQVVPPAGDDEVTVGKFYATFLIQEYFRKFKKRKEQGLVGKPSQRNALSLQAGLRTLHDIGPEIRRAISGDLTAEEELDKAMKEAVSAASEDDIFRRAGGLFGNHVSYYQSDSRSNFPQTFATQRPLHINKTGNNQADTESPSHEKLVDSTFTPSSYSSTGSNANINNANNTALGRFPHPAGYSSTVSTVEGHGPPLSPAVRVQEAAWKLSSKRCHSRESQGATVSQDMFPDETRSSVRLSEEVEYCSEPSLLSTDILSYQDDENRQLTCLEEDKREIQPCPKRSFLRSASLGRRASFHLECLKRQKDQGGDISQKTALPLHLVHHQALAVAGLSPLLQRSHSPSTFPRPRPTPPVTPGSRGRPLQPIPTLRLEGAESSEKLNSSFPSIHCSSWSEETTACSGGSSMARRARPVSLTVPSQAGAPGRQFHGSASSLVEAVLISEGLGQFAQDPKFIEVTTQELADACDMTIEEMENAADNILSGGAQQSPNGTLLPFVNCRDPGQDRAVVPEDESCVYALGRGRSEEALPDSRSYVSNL
T2 sequence (P54290 25-944 partner): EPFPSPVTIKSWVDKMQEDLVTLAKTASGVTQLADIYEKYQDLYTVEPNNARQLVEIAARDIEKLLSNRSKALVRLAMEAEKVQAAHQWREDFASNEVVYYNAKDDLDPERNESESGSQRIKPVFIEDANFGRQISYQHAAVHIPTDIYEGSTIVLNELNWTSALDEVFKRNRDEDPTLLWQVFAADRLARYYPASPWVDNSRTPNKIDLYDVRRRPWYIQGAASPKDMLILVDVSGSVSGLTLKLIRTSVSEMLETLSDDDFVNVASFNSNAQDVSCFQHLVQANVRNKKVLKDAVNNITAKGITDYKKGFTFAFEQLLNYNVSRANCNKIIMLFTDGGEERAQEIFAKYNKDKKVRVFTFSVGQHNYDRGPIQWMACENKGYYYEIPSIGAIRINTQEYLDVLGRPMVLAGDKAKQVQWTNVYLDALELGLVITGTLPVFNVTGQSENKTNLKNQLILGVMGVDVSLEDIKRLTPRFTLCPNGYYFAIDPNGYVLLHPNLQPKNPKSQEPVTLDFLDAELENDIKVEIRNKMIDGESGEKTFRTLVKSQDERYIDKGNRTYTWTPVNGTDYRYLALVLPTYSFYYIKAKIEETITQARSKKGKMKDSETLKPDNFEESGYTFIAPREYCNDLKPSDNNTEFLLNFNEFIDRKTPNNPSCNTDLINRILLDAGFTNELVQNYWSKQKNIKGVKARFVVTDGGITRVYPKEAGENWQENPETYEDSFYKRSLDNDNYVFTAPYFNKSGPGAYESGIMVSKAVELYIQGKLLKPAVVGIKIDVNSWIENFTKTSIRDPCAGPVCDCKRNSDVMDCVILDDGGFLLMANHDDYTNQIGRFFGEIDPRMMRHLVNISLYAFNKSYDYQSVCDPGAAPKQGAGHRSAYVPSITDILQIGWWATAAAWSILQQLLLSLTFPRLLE
T2 sequence (P54290 945-1091 partner): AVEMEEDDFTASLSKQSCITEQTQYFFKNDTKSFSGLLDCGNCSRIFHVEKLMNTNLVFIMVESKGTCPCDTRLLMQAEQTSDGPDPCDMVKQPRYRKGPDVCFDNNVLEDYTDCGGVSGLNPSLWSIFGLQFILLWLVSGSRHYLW
T2 sequence (P54283 whole entry partner): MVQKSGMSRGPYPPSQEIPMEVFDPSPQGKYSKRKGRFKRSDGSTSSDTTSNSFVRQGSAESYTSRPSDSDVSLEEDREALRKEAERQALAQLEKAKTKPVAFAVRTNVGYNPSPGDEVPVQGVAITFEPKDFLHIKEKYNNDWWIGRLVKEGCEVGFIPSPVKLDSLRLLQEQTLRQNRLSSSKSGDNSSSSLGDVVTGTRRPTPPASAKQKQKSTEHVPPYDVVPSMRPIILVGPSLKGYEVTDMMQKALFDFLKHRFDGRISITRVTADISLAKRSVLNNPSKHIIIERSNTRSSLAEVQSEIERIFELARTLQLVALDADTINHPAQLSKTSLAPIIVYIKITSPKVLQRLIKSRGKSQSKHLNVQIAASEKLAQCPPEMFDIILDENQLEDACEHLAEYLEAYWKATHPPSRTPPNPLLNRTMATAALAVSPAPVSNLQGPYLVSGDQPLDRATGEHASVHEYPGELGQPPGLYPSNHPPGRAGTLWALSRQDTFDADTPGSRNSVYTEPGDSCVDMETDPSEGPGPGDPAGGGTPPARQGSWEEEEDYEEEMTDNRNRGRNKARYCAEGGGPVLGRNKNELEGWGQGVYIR
Protocol: Recombinant human embryonal kidney cells (HEK293, ATCC) stably transfected with either N-type calcium channel (NTCC) subunits (α1b (SEQ ID NOs: 13 to 15), α2δ (SEQ ID Nos: 16, 17), and β3 (SEQ ID NOs:18 to 20)) or L-type calcium channel (LTCC) subunits (α1c (SEQ ID NOs:21, 22), α2δ, and β1 (SEQ ID NOs:23 to 25)) were routinely cultured in growth medium consisting of Dulbecco's Modified Eagles Medium containing 10% FBS, 100 U/mL penicillin, 100 μg/mL streptomycin, 4 mM L-glutamine, 500 μg/mL geneticin (G418), 20 μg/mL Blasticidin S (InVivogen, San Diego, Calif.) and 500 μg/mL zeocin (InVivogen).
FLIPR Calcium Mobilization Assay for L-type Calcium Channel. One day prior to performing this assay, HEK293 cells stably expressing recombinant rat L-type calcium channel (LTCC) subunits (α1c, α2δ, and β1) were trypsinized, then seeded on poly-D-lysine-coated 96-well clear-bottom black plates (Becton Dickinson, Franklin Lakes, N.J.) at 75,000 cells/well. On the day of the assay, the plates were washed with LTCC wash buffer (127 mM NaCl, 2 mM MgCl2, 700 μM NaH2PO4, 5 mM CaCl2, 5 mM NaHCO3, 8 mM HEPES, 10 mM glucose, pH 7.4), then loaded with 0.1 mL of LTCC wash buffer containing Fluo-4 (3 μM final concentration, Molecular Probes, Eugene, Oreg.). After 1 hour, the cells were washed with 0.1 mL LTCC wash buffer and resuspended in 0.05 mL LTCC assay buffer (same composition as LTCC wash buffer). Plates were then transferred to a FLIPR^96 for assay. The FLIPR measured basal Fluo-4 fluorescence for 15 seconds, then added 0.05 mL of each compound tested diluted in LTCC assay buffer at final concentrations ranging from about 846 pM to about […]. Fluo-4 fluorescence was then measured for 5 minutes. 0.1 mL KCl agonist dissolved in LTCC assay buffer was then added to the cells to produce a final concentration of 90 mM KCl, and fluorescence was measured for another 45 seconds. Data were collected over the entire time course and analyzed using Excel, Graph Pad Prism, or an in-house regression analysis software.
L-type Recombinant Cell Line Development. L-type calcium channel expressing HEK-293 cells were created in two stages. Stage 1 was created as follows. The rat α1c, and β1 cDNA expression constructs (2.5 μg each) were co-transfected into human embryonic kidney (HEK-293) cells by Lipofectamine Plus reagent (Invitrogen), as per manufacturer's instructions. 24 hours later, cells were split in limiting dilution into multiple 96-well plates in selection media containing 20 μg/mL blasticidin and 500 μg/mL geneticin, and incubated for 3 weeks at 37° C., 5% CO2, 95% humidity. Plates containing ≦1 clone per well were cultured until wells positive for single clones were confluent. Individual clones were then arrayed into columns of a destination 96-well plate, and partly split into 6-well plates for culture maintenance. Array plates were washed once with LTCC wash (or assay) buffer and cells loaded for 1 hour with 0.1 mL of LTCC buffer containing Fluo-4 (3 μM final concentration, Molecular Probes). Then they were washed twice with 0.1 mL of LTCC buffer, and replaced with 0.1 mL LTCC buffer. Plates were then transferred to a FLIPR^96 for assay. The FLIPR measured basal Fluo-4 fluorescence for 315 seconds, then added 0.1 mL KCl agonist dissolved in LTCC buffer and measured fluorescence for another 45 seconds. Final KCl concentration was 90 mM. Data were collected over the entire time course and analyzed using Excel, Graph Pad Prism, or Activity Base software. The clone with the greatest signal-to-noise ratio, best stability of response with passage number, and best adhesion to PDL precoated plates (Becton Dickinson) was expanded, characterized and used for stage 2 cell line development.
Stage 2 of L-type cell line development was carried out as follows. The rat α2δ cDNA expression construct (5 μg each) was transfected into the stage 1 L-type clonal cell line by Lipofectamine Plus reagent (Invitrogen), as per manufacturer's instructions. […]

| SMILES | IC50 [1] [nM] | IC50 [2] [nM] |
| --- | --- | --- |
| CCOC(=O)C(C)(C)N1CCC(N(C(C)C)S(=O)(=O)c2cccc(C(F)(F)F)c2)CC1 [Compound 8b, 2-{4-[Isopropyl-(3-trifluoromethyl-benzenesulfonyl)amino]piperidin-1-yl}-2-methylpropionic acid ethyl ester] | 620 | > 20000 |
| O=C(CN1CCC(N(C2CC2)S(=O)(=O)c2cccc(C(F)(F)F)c2)CC1)Oc1ccc(Cl)cc1 [Compound 8c, {-4-[Cyclopropyl-(3-trifluoromethyl-benzenesulfonyl)amino]piperidin-1-yl}acetic acid 4-chlorophenyl ester] | 600 | > 20000 |
| COC(=O)c1ccccc1N1CCC(N(C2CC2)S(=O)(=O)c2cccc(C(F)(F)F)c2)CC1 [Compound 10a, 2-{4-[Cyclopropyl-(3-trifluoromethyl-benzenesulfonyl)amino]piperidin-1-yl}benzoic acid methyl ester] | 900 | > 20000 |
| O=C(NCCN1CCC(N(C2CC2)S(=O)(=O)c2cccc(C(F)(F)F)c2)CC1)c1ccc(F)cc1 [Compound 14a, N-(2-{-4-[Cyclopropyl-(3-trifluoromethylbenzenesulfonyl)amino]piperidin-1-yl}ethyl)-4-fluorobenzamide] | 380 | 6740 |
| CC(C)N(C1CCN(CCC(=O)N2CCCCC2)CC1)S(=O)(=O)c1cccc(C(F)(F)F)c1 [Compound 18, N-Isopropyl-N-[1-(3-oxo-3-piperidin-1-yl-propyl)-piperidin-4-yl]-3-trifluoromethyl-benzenesulfonamide] | 770 | > 20000 |
| CC(C)(C(=O)Nc1ccc(F)cc1)N1CCC(N(C2CC2)S(=O)(=O)c2cccc(C(F)(F)F)c2)CC1 [Compound 21b, 2-{-4-[Cyclopropyl-(3-trifluoromethyl-benzenesulfonyl)-amino]-piperidin-1-yl}-N-(4-fluoro-phenyl)-isobutyramide] | 600 | > 20000 |
| CC(CC(=O)NC(C)(C)C)N1CCC(N(C(C)C)S(=O)(=O)c2cccc(C(F)(F)F)c2)CC1 (centres unmarked) [Compound 25, 3-{4-[Isopropyl-(3-trifluoromethyl-benzenesulfonyl)amino]piperidin-1-yl}-N-tert-butyl-butyramide] | 240 | 8450 |
| CC(C)N(C1CCN(C2CCN(c3ccccc3)C2=O)CC1)S(=O)(=O)c1cccc(C(F)(F)F)c1 (centres unmarked) [Compound 27a, N-Isopropyl-N-[1-(2-oxo-1-phenyl-pyrrolidin-3-yl)-piperidin-4-yl]-3-trifluoromethyl-benzenesulfonamide] | 550 | > 20000 |

Next, values leading:

| IC50 [1] [nM] | IC50 [2] [nM] | SMILES |
| --- | --- | --- |
| 390 | > 20000 | CC(C(=O)Nc1ccccc1)N1CCC(N(C2CC2)S(=O)(=O)c2cccc(C(F)(F)F)c2)CC1 (centres unmarked) [Compound 27b, 2-{4-[Cyclopropyl-(3-trifluoromethyl-benzenesulfonyl)-amino]piperidin-1-yl}-N-phenyl-propionamide] |
| 300 | > 20000 | CC(C)N(C1CCN(CC(=O)N2CCCCCC2)CC1)S(=O)(=O)c1cccc(C(F)(F)F)c1 [Compound 31a, N-[1-(2-Azepan-1-yl-2-oxo-ethyl)-piperidin-4-yl]-N-isopropyl-3-trifluoromethyl-benzenesulfonamide] |
| 260 | 7850 | CC(C)N(C1CCN(CC(=O)NC2CCCCCC2)CC1)S(=O)(=O)c1cccc(C(F)(F)F)c1 [Compound 31c, N-Cycloheptyl-2-{4-[isopropyl-(3-trifluoromethyl-benzenesulfonyl)-amino]-piperidin-1-yl}-acetamide] |
| 340 | 4120 | CC(C)N(C1CCN(CC(=O)NC2CC3CCC2C3)CC1)S(=O)(=O)c1cccc(C(F)(F)F)c1 (centres unmarked) [Compound 31d, N-Bicyclo[2.2.1]hept-2-yl-2-{4-[isopropyl-(3-trifluoromethyl-benzenesulfonyl)-amino]-piperidin-1-yl}-acetamide] |
| 580 | > 20000 | CC(C)N(C1CCN(CC(=O)Nc2ccc3c(c2)OC(F)(F)O3)CC1)S(=O)(=O)c1cccc(C(F)(F)F)c1 [Compound 31f, N-(2,2-Difluoro-benzo[1,3]dioxol-5-yl)-2-{4-[isopropyl-(3-trifluoromethyl-benzenesulfonyl)-amino]-piperidin-1-yl}-acetamide] |

From US8765736B2, “Benzenesulfonamide compounds and the use thereof” (Purdue Pharma L.P., priority 2007, dated 2014)
